Read-outs that look alike come from different tables or passages of the source. Where a SMILES comes first, the peptide text is derived from it.
Assays:
[1] = Fluorescence titration, VEPEP-9/cargo binding; conditions: cargo SHM
Protocol: (§1) Fluorescence experiments were performed on a PTI spectrofluorimeter at 25° C. in a NaCl 154 mM buffer. Intrinsic Trp-fluorescence of VEPEP-9 was excited at 290 nm and emission spectrum was recorded between 310 and 400 nm, with a spectral band-pass of 2 and 8 nm for excitation and emission, respectively. FITC- or CY5-fluorescence of labelled-peptide or Oligonucleotide were excited at 492 nm and emission recorded between 500 and 580 nm. For VEPEP-9/peptide interaction, 0.5 μM of FITC-labelled peptide was titrated by increasing concentrations of VEPEP-9. For VEPEP-9/oligonucleotide interaction, 200 nM of FITC or CY5-labelled oligodeoxynucleotide (ODN) was titrated by increasing concentrations of VEPEP-9. All measurements were corrected for the dilution and curve fitting were performed by using Grafit software (Erithacus).
(§2) VEPEP-9 peptide form stable complexes with peptides and ODN. The binding of cargos to VEPEP-9 was monitored by fluorescence spectroscopy using the both intrinsic Trp group of VEPEP-9 (3 to 5 Trp-residues) and extrinsic fluorescently labelled cargoes (using Cy3, Cy5 or FITC). Curve fitting reveal that VEPEP-9 strongly binds the different cargoes with dissociation constant in the nanomolar range (Tables 1 and 2 and FIG. 2).
(§3) VEPEP-9 peptides form stable particles with different cargoes including peptide, siRNA, PNA and small aromatic (FIG. 2). The dissociation constant for peptide, siRNA, PNA and small hydrophobic molecule ranges between 10-100 nM, 5-50 nM, 5-50 nM and 0.02 to 0.2 μM, respectively, depending on the nature of the dyes and of the cargoes.

PNA (15 mer -PNA) = assay: Fluorescence titration, VEPEP-9/cargo binding; conditions: cargo PNA (15 mer)
Protocol: as §1, §2, §3

Peptide (C4) = assay: Fluorescence titration, VEPEP-9/cargo binding; conditions: cargo peptide (C4)
Protocol: as §1, §2, §3

siRNA = assay: Fluorescence titration, VEPEP-9/cargo binding; conditions: cargo siRNA
Protocol: as §1, §2, §3

[2] = Fluorescence titration, VEPEP-9/SHM binding
Protocol: as §1
Binding of small molecule cargoes has been investigated in detailed depending on the nature of the SHM. Several hydrophobic molecules have been used (Daunomycin, Paclitaxel, doxorubicin, porphyrin), as well as charged molecules (nucleotide, nucleoside and fluorescent dyes).

cultured cells = assay: Cell cycle progression / cyclin B1 levels in cultured cells; format: cell-based; conditions: for concentration at which 4 N accumulation was optimally obtained: VEPEP-9 mediated delivery
[3] = system: non-transformed HS68 fibroblasts; assay: Cell proliferation after VEPEP-9 mediated delivery; format: cell-based, Human
Protocol: (§4) Adherent HS68 fibroblasts, HeLa, PC3, MCF-7, SCK3-Her2, PBMC cell lines (from American Type Culture Collection (ATCC)) were cultured in Dulbecco's Modified Eagle's Medium supplemented with 2 mM glutamine, 1% antibiotics (streptomycin 10,000 μg/ml, penicillin, 10,000 IU/ml) and 10% (w/v) foetal calf serum (FCS), at 37° C. in a humidified atmosphere containing 5% CO2. Stock solutions of VEPEP-9/peptide particles were prepared by complexing 1 μM peptide with VEPEP-9 peptides at a molar ratio of 1/20 for 30 min at 37° C. Lower concentrations of VEPEP-9-carrier/peptide (from 500 nM to 1 μM) were obtained by serial dilution of the stock complexes in PBS, in order to preserve the same VEPEP-9-carrier/peptide ratio. Stock solutions of VEPEP-9/siRNA particles were prepared by complexing 100 nM siRNA with VEPEP-9 peptides at a molar ratio of 1/20 for 30 min at 37° C. Lower concentrations of VEPEP-9/siRNA (from 20 nM to 0.125 nM) were obtained by serial dilution of the stock complexes in PBS, in order to preserve the same VEPEP-9/siRNA ratio. […] For cdk2 derived peptides, cell proliferation was monitored after 24 and 48 hrs. For siRNA targeting Cyclin B1, Cyclin B1 mRNA level was determined 24 hrs following transduction, using Quantigen (Pommies Inc.). […]

[4] = system: Hela, MCF7, HEK-2 and U2OS cells; assay: Cell proliferation after VEPEP-9 mediated delivery; format: cell-based
Protocol: as §4

HEK-2 = assay: G2 arrest (accumulation of cells with 4 N content); format: cell-based; conditions: Cyclin B1 siRNA delivered with VEPEP-9
[5] = system: PC3, A549, or SCK-3-HEK2-xenografted mice; assay: Tumour growth and cyclin B1 mRNA, siRNA controls; format: in vivo
Protocol: (§5) For siRNA treatment: Two to three weeks after tumour implant, when tumour size reached about 100 mm^3, animals were treated by intratumoral or intravenous injection, every 3 days, with a solution of 0.1 ml of either free Cyc-B1 siRNA (50 or 100 μg), control siRNA Cyc-B3 or Cyc-B1 siRNA (1, 5, 10 μg) complexed with NANOPEP-9 at a 1/20 molar ratio.
Athymic female nude mice (6-8 weeks of age) were subcutaneously inoculated into the flank with 1×10^6 PC3 (prostate cancer), A549 (lung cancer) or SCK-3-HEK2 (ovarian cancer) cells in 100 μl PBS. Two to three weeks after tumour implant, when tumour size reached about 100 mm^3, animals were treated by intratumoral or intravenous injection, every 3 days, with a solution of 0.1 ml of either free Cyc-B1 siRNA (50 or 100 μg), control siRNA Cyc-B3 or Cyc-B1 siRNA (5, 10 μg) complexed with NANOPEP-9b or NANOPEP-9e particles. The “core” shell of the particles was formed using VEVEP-9b or VEPEP-9e peptide at a molar ratio of 20/1 with a siRNA targeting cycline B1. siRNA stock solutions are in 50 mM Tris, 0.5 mM EDTA buffer or in RNase free water. VEPEP-9 peptides were solubilised in water and stock solution of peptide was sonicated for 10 min in a water bath before complex formation. Then VEPEP-9/siRNA complexes were formed by adding siRNA into the peptide solution and incubating at 37° C. for 20-30 minutes to allow the carrier peptide/siRNA complexes to form. NANOPEP-9 particles contain a VEPEP-9/siRNA “core shell” surrounded by additional VEPEP-9 at a 1/20 molar ratio.
The potential of NANOPEP-9b or NANOPEP-9e to deliver cyclin B1 siRNA in vivo was evaluated on PC3, A549, or SCK-3-HEK2-xenografted mice (FIGS. 13A-13B). The effect of local intratumoral administration of NANOPEP-9/siRNA particles (molar ratio 20/1) on the growth of established subcutaneous tumours was evaluated. At day 50, tumor sizes in the control cohort, injected with PBS increased by about 3 to 5 fold. […] At day 48, it was validated that the Cyc-B1 siRNA mediated inhibition of tumour growth was directly associated with a decrease in the level of cyclin B1 mRNA.

PC3 tumor = assay: Tumour size, intravenous Cyc B1 siRNA in NANOPEP-9; format: in vivo, mice; conditions: intravenous every three days, day 50
Protocol: as §5
Athymic female nude mice (6-8 weeks of age) were subcutaneously inoculated into the flank with 1×10^6 PC3 (prostate cancer), A549 (lung cancer) or SCK-3-HEK2 (ovarian cancer) cells in 100 μl PBS. Two to three weeks after tumour implant, when tumour size reached about 100 mm^3, animals were treated by intratumoral or intravenous injection, every 3 days, with a solution of 0.1 ml of either free Cyc-B1 siRNA (50 or 100 μg), control siRNA Cyc-B3 or Cyc-B1 siRNA (5, 10 μg) complexed with NANOPEP-9b or NANOPEP-9e particles. The “core” shell of the particles was formed using VEVEP-9b or VEPEP-9e peptide at a molar ratio of 20/1 with a siRNA targeting cycline B1. siRNA stock solutions are in 50 mM Tris, 0.5 mM EDTA buffer or in RNase free water. VEPEP-9 peptides were solubilised in water and stock solution of peptide was sonicated for 10 min in a water bath before complex formation. […]

HT29 tumor = assay: Tumour size, intravenous Cyc B1 siRNA in NANOPEP-9; format: in vivo, mice; conditions: intravenous every three days, day 50
Protocol: NANOPEP-9b and NANOPEP-9e particles were used for systemic intravenous administration. Five micrograms (0.25 mg/kg) and 10 μg (0.5 mg/kg) of Cyc B1 siRNA in NANOPEP-9b and NANOPEP-9e particles were injected intravenously every three days into mice bearing xenografted tumors.

Hela [6] = conditions: read-out: IC50, block of proliferation, siRNA delivered with VEPEP-9b and VEPEP-9e
Protocol: (§6) Adherent HS68 fibroblasts, HeLa, PC3, MCF-7, SCK3-Her2, PBMC cell lines (from American Type Culture Collection (ATCC)) were cultured in Dulbecco's Modified Eagle's Medium supplemented with 2 mM glutamine, 1% antibiotics (streptomycin 10,000 μg/ml, penicillin, 10,000 IU/ml) and 10% (w/v) foetal calf serum (FCS), at 37° C. in a humidified atmosphere containing 5% CO2. […] Stock solutions of VEPEP-9/siRNA particles were prepared by complexing 100 nM siRNA with VEPEP-9 peptides at a molar ratio of 1/20 for 30 min at 37° C. Lower concentrations of VEPEP-9/siRNA (from 20 nM to 0.125 nM) were obtained by serial dilution of the stock complexes in PBS, in order to preserve the same VEPEP-9/siRNA ratio. 150,000 cells seeded in a 35 mm dish the day prior transfection, were grown to 60% confluence and overlaid with 200 μl of preformed complexes, incubated for 3-5 min, then 400 μl of DMEM were added. After 30 min. incubation at 37° C., 1 ml of fresh DMEM containing 16% foetal calf serum (FCS) was added in order to reach a final FCS concentration of 10%, without removing the overlay of VEPEP-9/cargo complexes. Cells were returned to the incubator for 24 hrs. For cdk2 derived peptides, cell proliferation was monitored after 24 and 48 hrs. For siRNA targeting Cyclin B1, Cyclin B1 mRNA level was determined 24 hrs following transduction, using Quantigen (Pommies Inc.). […]

MCF7 [7] = conditions: read-out: IC50, block of proliferation, siRNA delivered with VEPEP-9b and VEPEP-9e
Protocol: as §6

Hela [8] = conditions: read-out: IC50, accumulation of cells with a 4 N content (G2 arrest), Cyclin B1 siRNA delivered with VEPEP-9
MCF7 [9] = conditions: read-out: IC50, accumulation of cells with a 4 N content (G2 arrest), Cyclin B1 siRNA delivered with VEPEP-9
SKB3 = assay: Inhibition of cancer cell proliferation by delivered drugs; format: cell-based
MCF7 [10] = assay: as above; format: cell-based; conditions: Homo sapiens
[11] = drug complexed with VEPEP-9a at molar ratio 1/20, read-out: VEPEP-9a IC50
[12] = drug complexed with VEPEP-9b at molar ratio 1/20, read-out: VEPEP-9b IC50
[13] = drug complexed with VEPEP-9f at molar ratio 1/20, read-out: VEPEP-9f IC50
[14] = drug complexed with VEPEP-9d at molar ratio 1/20, read-out: VEPEP-9d IC50
[15] = free drug, read-out: Free drug IC50

X1WWGSWATPRRRWWR [VEPEP-9e, X1 is beta-A or S]
Binding [1]: Yes | Kd [1]: 0.02 to 0.1 µM | Binding (PNA (15 mer -PNA)): Yes | Kd (PNA (15 mer -PNA)): 0.005 to 0.05 µM | Binding (Peptide (C4)): yes | Binding (siRNA): yes | Kd (siRNA): 0.005 to 0.05 µM | Binding ([2]; cargo AZT): yes | Kd ([2]; cargo AZT): 0.09 µM | Binding ([2]; cargo Doxorubicin): yes | Kd ([2]; cargo Doxorubicin): 0.05 µM | Binding ([2]; cargo FAM-guanosine): yes | Kd ([2]; cargo FAM-guanosine): 1.1 µM | Binding ([2]; cargo porphyrin): yes | Kd ([2]; cargo porphyrin): 0.2 µM | effect on cyclin B1 levels and cell cycle progression (cultured cells; carrier alone (100 μM)): no effect

siRNA: siRNA targeting Cyclin B1; sense 5′GGCGAAGAUCAACAUGGCATT3′, antisense 5′UGCCAUGUUGAUCUUCGCCTT3′ (chemistry not given here)
reduction of proliferation [3]: 10% | concentration sufficient to block proliferation [4]: 20 nM | IC50 (HEK-2): 0.0012 ± 0.0006 µM | concentration at which 4 N accumulation was optimally obtained (cultured cells): 20 nM | effect on tumour growth ([5]; 100 μg naked siRNA (intratumoral or intravenous) or carrier alone): no significant effect | level of cyclin B1 mRNA in tumour ([5]; day 48): decrease | inhibition (reduction in tumor size) (PC3 tumor; 5 μg siRNA in NANOPEP-9b and NANOPEP-9e particles): 65% | inhibition (reduction in tumor size) (PC3 tumor; 10 μg siRNA in NANOPEP-9b and NANOPEP-9e particles): 90% | inhibition (reduction in tumor size) (HT29 tumor; 5 μg siRNA): 35% | inhibition (reduction in tumor size) (HT29 tumor; 10 μg siRNA): 70% | IC50 (Hela [6]): 0.0031 ± 0.0002 µM | IC50 (MCF7 [7]): 0.0016 ± 0.0005 µM | IC50 (Hela [8]): 0.0024 ± 0.0008 µM | IC50 (MCF7 [9]): 0.0019 ± 0.0009 µM

X1WWRWWASWARSWWR [VEPEP-9d, X1 is beta-A or S]
Binding [1]: Yes | Kd [1]: 0.02 to 0.1 µM | Binding (PNA (15 mer -PNA)): Yes | Kd (PNA (15 mer -PNA)): > 0.05 µM | Binding (Peptide (C4)): yes | Binding (siRNA): yes | Kd (siRNA): > 0.2 µM | Binding ([2]; cargo AZT): yes | Kd ([2]; cargo AZT): 0.02 µM | Binding ([2]; cargo Doxorubicin): yes | Kd ([2]; cargo Doxorubicin): 0.09 µM | Binding ([2]; cargo FAM-guanosine): yes | Kd ([2]; cargo FAM-guanosine): 0.4 µM | Binding ([2]; cargo porphyrin): yes | Kd ([2]; cargo porphyrin): 0.25 µM

CSCC[C@H](NC(=O)[C@H](CCCNC(=N)N)NC(=O)[C@@H](NC(=O)[C@H](CCC(N)=O)NC(=O)[C@H](CCCCN)NC(=O)[C@@H](N)CCCCN)C(C)C)C(=O)N[C@@H](C)C(=O)N[C@@H](Cc1c[nH]cn1)C(=O)N[C@@H](CC(C)C)C(=O)N[C@H](C(=O)N[C@@H](CC(C)C)C(=O)N[C@H](C(=O)O)[C@@H](C)O)C(C)C [C4, KKQVRMAHLVLT] (H-KKQVRMAHLVLT-OH; N-terminus and C-terminus assumed)
reduction of proliferation [3]: 10% | concentration sufficient to block proliferation [4]: 200 nM | concentration at which 4 N accumulation was optimally obtained (cultured cells): 200 nM

Cyc-B3: mismatch cyclin B1 siRNA harbouring two mutations; sense 5′GGUGAAGAUCAGCAUGGCATT3′ (antisense UGCCAUGUCGAUCUUCACCTT; chemistry not given here)
effect on cyclin B1 levels and cell cycle progression (cultured cells; 200 nM, complexed with VEPEP-9 at a 20/1 ratio): no effect | inhibition of tumour growth ([5]; complexed with NANOPEP-9e, 0.5 mg/kg): unable to inhibit tumour growth

CC(=O)O[C@H]1C(=O)[C@@]2(C)[C@H]([C@H](OC(=O)c3ccccc3)[C@]3(O)C[C@H](OC(=O)[C@H](O)[C@@H](NC(=O)c4ccccc4)c4ccccc4)C(C)=C1C3(C)C)[C@]1(OC(C)=O)CO[C@@H]1C[C@@H]2O [Taxol, taxol]
IC50 (SKB3; [11]): 0.7 µM | IC50 (SKB3; [12]): 0.65 µM | IC50 (SKB3; [13]): 0.9 µM | IC50 (SKB3; [14]): 0.7 µM | IC50 (SKB3; [15]): 10 µM | IC50 (MCF7 [10]; [11]): 0.8 µM | IC50 (MCF7 [10]; [12]): 0.12 µM | IC50 (MCF7 [10]; [13]): 0.8 µM | IC50 (MCF7 [10]; [14]): 0.5 µM | IC50 (MCF7 [10]; [15]): 7 µM

— US10421784B2, “Cell penetrating peptides for intracellular delivery of molecules” (AADIGEN, LLC, priority 2012, dated 2019)
